Where “and” joins values, the source holds several entries; their conditions need not be identical. Equal entries are not always repeated.
What was measured:
P. vivax hypnozoites = assay: P. vivax liver stage assay, hypnozoites; type: cell-based, Plasmodium vivax; details: for Hypnozoites per well: Isolate 2, replicate wells (Figure 6d); for Number of liverstage hypnozoites per well: 20 µM, 8 dpi; for IC50: Plasmodium vivax, Hepatocyte, 120 h, primary human hepatocytes, treatment day 5 to 8 post-infection, isolate 2
Method in brief: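 Hypnozoite read-out by confocal imaging of PvUIS4/DAPI-stained cultures at day 8 post-infection. Compound was replaced daily starting day 5 in P. vivax-infected single-donor primary human hepatocytes. Positive control: Pi4K inhibitor MMV390048, 20 µM.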

[1] = tested on: primary human hepatocytes; assay: Nuclear counts (DAPI) in P. vivax-infected primary hepatocytes as measure of toxicity; type: cell-based; details: two technical replicates
Method in brief: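 Toxicity readout: DAPI nuclear counts normalized to DMSO wells, from confocal images of fixed P. vivax-infected single-donor primary human hepatocytes. Compounds, up to 20 µM, were applied daily from day 5 until day 8 post-infection; two technical replicates.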

P. vivax schizonts = assay: P. vivax liver stage assay, schizonts; type: cell-based, Plasmodium vivax; details: for Number of liverstage Schizonts per well: 20 µM, 8 dpi; for IC50: Plasmodium vivax, Hepatocyte, 120 h, primary human hepatocytes, treatment day 5 to 8 post-infection, isolates 2 and 3
Method in brief: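 Compound exposure ran days 5–8 post-infection with daily refeeding, dose-response up to 20 µM, MMV390048 at 20 µM as positive control. Host cells were single-lot primary human hepatocytes infected with freshly dissected P. vivax sporozoites; fixed cultures stained with anti-PvUIS4 and DAPI, schizonts quantified by confocal microscopy.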

HepG2 cells = assay: HepG2 cytotoxicity assay (Live/Dead staining); details: replicates
Method in brief: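 Live/dead fluorescence microscopy (calcein-AM and ethidium homodimer, 1 µM each) read at 72 h post-treatment. Compounds dosed at 1 to 20 µM on HepG2 cells, with washing and fresh compound every 24 h.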

[2] = isolate 1, technical replicates (Fig. 6C)
[3] = isolate 2, technical replicates (Fig. 6C)
[4] = isolate 3, technical replicates (Fig. 6C)
[5] = isolate 1, technical replicates (Fig. 5b)
[6] = isolate 2, technical replicates (Fig. 5b)
[7] = isolate 3, technical replicates (Fig. 5b)

With Cc1n[nH]c(C)c1CCOc1cc(F)ccc1-c1cccc(OCCN(C)C)c1 [Compound 26i] the Hypnozoites per well (P. vivax hypnozoites; 1.25 uM) was 10 and 7 and 12, the Hypnozoites per well (P. vivax hypnozoites; 2.5 uM) was 7 and 9 and 14 and the Hypnozoites per well (P. vivax hypnozoites; 5 uM) was 10 and 7 and 12. For the same compound, the Hypnozoites per well (P. vivax hypnozoites; 10 uM) was 8 and 12 and 14, the “Number of liverstage hypnozoites per well” value (P. vivax hypnozoites; [2]) was 8 per well and 6 per well (2×) and the “Number of liverstage hypnozoites per well” value (P. vivax hypnozoites; [3]) was 8 per well and 6 per well (2×). For the same compound, the “Number of liverstage hypnozoites per well” value (P. vivax hypnozoites; [4]) was 0 per well, the Hypnozoites per well (P. vivax hypnozoites; 20 uM) was 8 and 6 (2×) and the IC50 (P. vivax hypnozoites) was 11 µM. For the same compound, the “hypnozoites (fold change to DMSO) mean diff” value (P. vivax hypnozoites; isolate 1, 20 µM) was 1.000, the “hypnozoites (fold change to DMSO) mean diff” value (P. vivax hypnozoites; isolate 2, 20 µM) was 0.310 and the “Nucleus counts per well” value ([1]; 1 uM) was 15030 per well and 14960 per well. For the same compound, the “Nucleus counts per well” value ([1]; 2.5uM) was 13600 per well and 14280 per well, the “Nucleus counts per well” value ([1]; 5 uM) was 12980 per well and 13510 per well and the “Nucleus counts per well” value ([1]; 10uM) was 14570 per well and 13510 per well. The “Nucleus counts per well” value ([1]; 20uM, P. vivax-infected wells) was 12860 per well and 13500 per well, the “Number of liverstage Schizonts per well” value (P. vivax schizonts; [5]) was 2 per well (2×) and 0 per well and the “Number of liverstage Schizonts per well” value (P. vivax schizonts; [6]) was 2 per well (2×) and 4 per well. The “Number of liverstage Schizonts per well” value (P. vivax schizonts; [7]) was 3 per well and 2 per well, the Schizonts per well (P. vivax schizonts; Isolate 2, 1.25 uM) was 14 per well and 13 per well and the Schizonts per well (P. vivax schizonts; Isolate 2, 2.5 uM) was 14 per well and 11 per well and 12 per well. The Schizonts per well (P. vivax schizonts; Isolate 2, 5 uM) was 10 per well and 9 per well and 7 per well, the Schizonts per well (P. vivax schizonts; Isolate 2, 20 uM (Fig. 5c-d)) was 2 per well and 4 per well and the Schizonts per well (P. vivax schizonts; Isolate 3, 1.25 uM) was 12 per well and 13 per well. The Schizonts per well (P. vivax schizonts; Isolate 3, 2.5 uM) was 10 per well and 9 per well, the Schizonts per well (P. vivax schizonts; Isolate 3, 5 uM) was 8 per well and 9 per well and the Schizonts per well (P. vivax schizonts; Isolate 3, 20 uM (Fig. 5c-d)) was 3 per well and 2 per well. The IC50 (P. vivax schizonts) was 3.3 to 5.2 µM, the “schizonts (fold change to DMSO) mean diff” value (P. vivax schizonts; isolate 1, 20 µM) was 0.933 and the “schizonts (fold change to DMSO) mean diff” value (P. vivax schizonts; isolate 2, 20 µM) was 0.8491. The “schizonts (fold change to DMSO) mean diff” value (P. vivax schizonts; isolate 3, 20 µM) was 0.8295, the “Percentage of live HepG2 cells compared with diluent controls” value (shortened to “Percentage of live HepG2 cells”) (HepG2 cells; 1 μM) was 96.6401% and 97.1078% and the “Percentage of live HepG2 cells” value (HepG2 cells; 2.5 μM) was 90.0917%. For the same compound, the “Percentage of live HepG2 cells” value (HepG2 cells; 5 μM) was 95.2109% and 86.8435%, the “Percentage of live HepG2 cells” value (HepG2 cells; 10 μM) was 86.5317% and 90.6634% and the “Percentage of live HepG2 cells” value (HepG2 cells; 20 μM) was 79.0479% and 88.1213%.

Cc1nn(C)c(C)c1CCOc1ccccc1-c1cccc(N2CCNCC2)c1 [Compound 12d] was tested, and the Hypnozoites per well (P. vivax hypnozoites; 1.25 uM) was 11 and 8 and 9, the Hypnozoites per well (P. vivax hypnozoites; 2.5 uM) was 7 (2×) and 8 and the Hypnozoites per well (P. vivax hypnozoites; 5 uM) was 5 (2×) and 7. For the same compound, the Hypnozoites per well (P. vivax hypnozoites; 10 uM) was 3 (2×) and 2, the “Number of liverstage hypnozoites per well” value (P. vivax hypnozoites; [2]) was 1 per well (2×) and 0 per well and the “Number of liverstage hypnozoites per well” value (P. vivax hypnozoites; [3]) was 3 per well and 0 per well and 1 per well. The “Number of liverstage hypnozoites per well” value (P. vivax hypnozoites; [4]) was 0 per well, the Hypnozoites per well (P. vivax hypnozoites; 20 uM) was 3 and 0 and 1 and the IC50 (P. vivax hypnozoites) was 4.7 µM. The “hypnozoites (fold change to DMSO) mean diff” value (P. vivax hypnozoites; isolate 1, 20 µM) was 0.939, the “hypnozoites (fold change to DMSO) mean diff” value (P. vivax hypnozoites; isolate 2, 20 µM) was 0.862 and the “Nucleus counts per well” value ([1]; 1 uM) was 15900 per well and 16970 per well. The “Nucleus counts per well” value ([1]; 2.5uM) was 14920 per well and 16520 per well, the “Nucleus counts per well” value ([1]; 5 uM) was 15990 per well and 14720 per well and the “Nucleus counts per well” value ([1]; 10uM) was 15680 per well and 15000 per well. For the same compound, the “Nucleus counts per well” value ([1]; 20uM, P. vivax-infected wells) was 12690 per well and 13950 per well, the “Number of liverstage Schizonts per well” value (P. vivax schizonts; [5]) was 1 per well (2×) and 0 per well and the “Number of liverstage Schizonts per well” value (P. vivax schizonts; [6]) was 2 per well and 0 per well and 1 per well. For the same compound, the “Number of liverstage Schizonts per well” value (P. vivax schizonts; [7]) was 2 per well and 1 per well, the Schizonts per well (P. vivax schizonts; Isolate 2, 1.25 uM) was 12 per well and 13 per well and the Schizonts per well (P. vivax schizonts; Isolate 2, 2.5 uM) was 11 per well and 9 per well and 15 per well. For the same compound, the Schizonts per well (P. vivax schizonts; Isolate 2, 5 uM) was 9 per well and 7 per well and 11 per well, the Schizonts per well (P. vivax schizonts; Isolate 2, 10 uM) was 8 per well and 5 per well and the Schizonts per well (P. vivax schizonts; Isolate 3, 1.25 uM) was 12 per well. The Schizonts per well (P. vivax schizonts; Isolate 3, 2.5 uM) was 6 per well and 11 per well, the Schizonts per well (P. vivax schizonts; Isolate 3, 5 uM) was 7 per well and 6 per well and the Schizonts per well (P. vivax schizonts; Isolate 3, 10 uM) was 5 per well and 4 per well. For the same compound, the Schizonts per well (P. vivax schizonts; Isolate 3, 20 uM (Fig. 5c-d)) was 2 per well and 1 per well, the IC50 (P. vivax schizonts) was 3.3 to 4.3 µM and the “schizonts (fold change to DMSO) mean diff” value (P. vivax schizonts; isolate 1, 20 µM) was 0.967. The “schizonts (fold change to DMSO) mean diff” value (P. vivax schizonts; isolate 2, 20 µM) was 0.9434, the “schizonts (fold change to DMSO) mean diff” value (P. vivax schizonts; isolate 3, 20 µM) was 0.8977 and the “Percentage of live HepG2 cells” value (HepG2 cells; 1 μM) was 110.153% and 106.021%. The “Percentage of live HepG2 cells” value (HepG2 cells; 2.5 μM) was 105.943% and 99.4465%, the “Percentage of live HepG2 cells” value (HepG2 cells; 5 μM) was 100.018% and 98.1213% and the “Percentage of live HepG2 cells” value (HepG2 cells; 10 μM) was 93.0281% and 104.514%. For the same compound, the “Percentage of live HepG2 cells” value (HepG2 cells; 20 μM) was 84.6088% and 84.0111%.

For Cc1nn(C)c(C)c1CCOc1cccnc1-c1cccc(N2CCNCC2)c1 [Compound 12b], the Hypnozoites per well (P. vivax hypnozoites; 1.25 uM) was 3 and 4 (2×), the Hypnozoites per well (P. vivax hypnozoites; 2.5 uM) was 3 and 4 (2×) and the Hypnozoites per well (P. vivax hypnozoites; 5 uM) was 2 (2×) and 3. The Hypnozoites per well (P. vivax hypnozoites; 10 uM) was 1 (2×) and 0, the “Number of liverstage hypnozoites per well” value (P. vivax hypnozoites; [2]) was 5 per well and 9 per well and 0 per well and the “Number of liverstage hypnozoites per well” value (P. vivax hypnozoites; [3]) was 1 per well and 0 per well (2×). The “Number of liverstage hypnozoites per well” value (P. vivax hypnozoites; [4]) was 0 per well, the Hypnozoites per well (P. vivax hypnozoites; 20 uM) was 1 and 0 (2×) and the IC50 (P. vivax hypnozoites) was 1.7 µM. For the same compound, the “Nucleus counts per well” value ([1]; 1 uM) was 16000 per well and 15090 per well, the “Nucleus counts per well” value ([1]; 2.5uM) was 15680 per well and 16210 per well and the “Nucleus counts per well” value ([1]; 5 uM) was 15950 per well and 14130 per well. For the same compound, the “Nucleus counts per well” value ([1]; 10uM) was 15200 per well and 15960 per well, the “Nucleus counts per well” value ([1]; 20uM, P. vivax-infected wells) was 12570 per well and 13810 per well and the “Number of liverstage Schizonts per well” value (P. vivax schizonts; [5]) was 1 per well and 2 per well and 0 per well. For the same compound, the “Number of liverstage Schizonts per well” value (P. vivax schizonts; [6]) was 2 per well (2×) and 4 per well, the “Number of liverstage Schizonts per well” value (P. vivax schizonts; [7]) was 1 per well and 2 per well and the Schizonts per well (P. vivax schizonts; Isolate 2, 1.25 uM) was 12 per well and 11 per well and 9 per well. The Schizonts per well (P. vivax schizonts; Isolate 2, 2.5 uM) was 11 per well and 7 per well and 10 per well, the Schizonts per well (P. vivax schizonts; Isolate 2, 5 uM) was 8 per well and 7 per well and 5 per well and the Schizonts per well (P. vivax schizonts; Isolate 2, 10 uM) was 2 per well and 4 per well. For the same compound, the Schizonts per well (P. vivax schizonts; Isolate 3, 1.25 uM) was 11 per well and 15 per well, the Schizonts per well (P. vivax schizonts; Isolate 3, 2.5 uM) was 9 per well and 11 per well and the Schizonts per well (P. vivax schizonts; Isolate 3, 5 uM) was 8 per well and 10 per well. The Schizonts per well (P. vivax schizonts; Isolate 3, 10 uM) was 4 per well and 3 per well, the Schizonts per well (P. vivax schizonts; Isolate 3, 20 uM (Fig. 5c-d)) was 1 per well and 2 per well and the IC50 (P. vivax schizonts) was 2.3 to 4.6 µM. For the same compound, the “Percentage of live HepG2 cells” value (HepG2 cells; 1 μM) was 108.074% and 106.671%, the “Percentage of live HepG2 cells” value (HepG2 cells; 2.5 μM) was 106.359% and 104.514% and the “Percentage of live HepG2 cells” value (HepG2 cells; 5 μM) was 106.385% and 94.2234%. For the same compound, the “Percentage of live HepG2 cells” value (HepG2 cells; 10 μM) was 92.0406% and 101.317% and the “Percentage of live HepG2 cells” value (HepG2 cells; 20 μM) was 83.7772% and 84.1151%.
